Test results published in article PMC11876601 (Molecular Systems Biology, 2025).
Values belong to the compound of their own block, whether it stands above or below them.

Assays:
[1] = system: WEE1; conditions: WEE1, 4 cell line mix lysate, Kinobeads y, ref Klaeger et al. (2017); cited from earlier work
[2] = target: ADK; conditions: 4 cell line mix lysate, Kinobeads y, ref Klaeger et al. (2017), cited from earlier work
[3] = system: MAP3K4; conditions: MAP3K4, 4 cell line mix lysate, Kinobeads y, ref Klaeger et al. (2017), cited from earlier work
[4] = system: EPHB6; parameters: method as in Klaeger et al. (2017); conditions: EPHB6, 4 cell line mix lysate, Kinobeads y, ref Klaeger et al. (2017), cited from earlier work
[5] = target: CSNK2B; conditions: 4 cell line mix lysate, Kinobeads y, ref Klaeger et al. (2017), cited from earlier work
[6] = system: CSNK2A2; conditions: CSNK2A2, 4 cell line mix lysate, Kinobeads y, ref Klaeger et al. (2017), cited from earlier work
[7] = target: GAK; conditions: 4 cell line mix lysate, Kinobeads y, ref Klaeger et al. (2017), cited from earlier work
[8] = target: EIF3J; conditions: 4 cell line mix lysate, Kinobeads y, ref Klaeger et al. (2017), cited from earlier work
[9] = system: CSNK2A1;CSNK2A3; conditions: CSNK2A1;CSNK2A3, 4 cell line mix lysate, Kinobeads y, ref Klaeger et al. (2017), cited from earlier work
[10] = system: INPPL1; parameters: method as in Klaeger et al. (2017); conditions: INPPL1, 4 cell line mix lysate, Kinobeads y, ref Klaeger et al. (2017), cited from earlier work
[11] = system: NEK3; parameters: method as in Klaeger et al. (2017); conditions: NEK3, 4 cell line mix lysate, Kinobeads y, ref Klaeger et al. (2017), cited from earlier work
[12] = system: AZI2; conditions: AZI2, 4 cell line mix lysate, Kinobeads y, ref Klaeger et al. (2017), cited from earlier work
[13] = system: TBK1; conditions: TBK1, 4 cell line mix lysate, Kinobeads y, ref Klaeger et al. (2017); cited from earlier work
[14] = system: GRB2; parameters: method as in Klaeger et al. (2017); conditions: GRB2, 4 cell line mix lysate, Kinobeads y, ref Klaeger et al. (2017), cited from earlier work
[15] = system: TBKBP1; conditions: TBKBP1, 4 cell line mix lysate, Kinobeads y, ref Klaeger et al. (2017), cited from earlier work
[16] = target: TANK; conditions: 4 cell line mix lysate, Kinobeads y, ref Klaeger et al. (2017), cited from earlier work
[17] = system: ADCK1; parameters: method as in Klaeger et al. (2017); conditions: ADCK1, 4 cell line mix lysate, Kinobeads y, ref Klaeger et al. (2017), cited from earlier work
[18] = target: BCR; conditions: 4 cell line mix lysate, Kinobeads y, ref Klaeger et al. (2017), cited from earlier work
[19] = system: IKBKE; conditions: 4 cell line mix lysate, Kinobeads y, ref Klaeger et al. (2017); cited from earlier work
[20] = system: ABL1; conditions: ABL1, 4 cell line mix lysate, Kinobeads y, ref Klaeger et al. (2017); cited from earlier work
[21] = system: 13 PDAC cell lines; assay: Phenotypic drug combination viability screen (ATPlite, 72 h), cell line panel; type: cell-based, human; conditions: single agent, 72 h
Method: (§1) Cell viability was assessed by measuring ATP levels to indicate metabolic activity.
(§2) Afterward, small amounts were transferred to 384-well intermediate plates (Greiner Bio-One GmbH, Germany). […] For drug combination screening, 1000 to 5000 cells were seeded into 384-well plates (CulturPlate™, Perkin Elmer, MA, USA) using a Multidrop™ Combi Reagent Dispenser (Thermo Scientific, MA, USA) in 50 µl medium per well 24 h prior to drug treatment (seeding densities see Appendix Table S1). […] The final DMSO concentration in each well was 0.2%. […] Eight wells per plate without library drug served as negative controls, and sixteen wells per plate containing 5 µM Staurosporine served as positive controls. Control plates not containing any drug were used to correct for incubation effects, and data quality was assessed by calculation of Z-prime of positive and negative controls according to1 Z-prime=1−3SDpos+3SDneg/[…] where SD is the standard deviation. […] Dose–response curves from the experimental and hypothetical data were compared, and shifts in AUC were used to describe combination effects (AUC∆ = AUChypothetical − AUCexperimental). […] Only combinations with R^2 > 0.8 in both conditions were considered in the synergy analysis.

[22] = system: Colo-357 cells; assay: Drug combination viability screen (ATPlite, 72 h); type: cell-based, human; conditions: Bliss model
Method: as §1, §2

[23] = system: Capan-1 cells; assay: Drug combination viability screen (ATPlite, 72 h); type: cell-based, human; conditions: Bliss model
Method: as §1, §2

[24] = system: Dan-G cells; assay: Drug combination viability screen (ATPlite, 72 h); type: cell-based, human; conditions: Bliss model
Method: as §1, §2

[25] = system: HPDE (immortalized pancreatic duct cell line); assay: Drug combination viability screen (ATPlite, 72 h); type: cell-based, human; conditions: combination with GEM
Method: as §1, §2

[26] = system: AsPC-1; assay: cells; parameters: Viability of PDAC cell lines, ATPlite luminescence, 11-dose single-agent curve fit; conditions: Homo sapiens, ASPC1, 72 h, read-out: EC50 [nM]
How it was run: (§3)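 screening used cells plated at 1000 to 5000 per well one day before treatment. Final DMSO was 0.2%. Each plate held untreated negative-control wells and 5 µM staurosporine positive-control wells.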

[27] = system: BxPC-3; assay: cells; parameters: Viability of PDAC cell lines, ATPlite luminescence, 11-dose single-agent curve fit; conditions: Homo sapiens, BXPC-3, 72 h, read-out: EC50 [nM]
How it was run: as §3

[28] = system: Capan-1; assay: cells; parameters: Viability of PDAC cell lines, ATPlite luminescence, 11-dose single-agent curve fit; conditions: Homo sapiens, CAPAN-1, 72 h, read-out: EC50 [nM]
How it was run: as §3

[29] = system: Colo-357; assay: cells; parameters: Viability of PDAC cell lines, ATPlite luminescence, 11-dose single-agent curve fit; conditions: Homo sapiens, COLO357, 72 h, read-out: EC50 [nM]
How it was run: as §3

[30] = system: Dan-G; assay: cells; parameters: Viability of PDAC cell lines, ATPlite luminescence, 11-dose single-agent curve fit; conditions: 72 h, read-out: EC50 [nM]
How it was run: as §3

[31] = system: FAMPAC; assay: cells; parameters: Viability of PDAC cell lines, ATPlite luminescence, 11-dose single-agent curve fit; conditions: 72 h, read-out: EC50 [nM]
How it was run: as §3

[32] = system: HPDE; assay: cells; parameters: Viability of PDAC cell lines, ATPlite luminescence, 11-dose single-agent curve fit; conditions: HPDE, 72 h, read-out: EC50 [nM]
How it was run: as §3

[33] = system: HuP-T4; assay: cells; parameters: Viability of PDAC cell lines, ATPlite luminescence, 11-dose single-agent curve fit; conditions: Homo sapiens, HuP-T4, 72 h, read-out: EC50 [nM]
How it was run: as §3

[34] = system: MiaPaCa-2; assay: cells; parameters: Viability of PDAC cell lines, ATPlite luminescence, 11-dose single-agent curve fit; conditions: Homo sapiens, MIA PaCa-2, 72 h, read-out: EC50 [nM]
How it was run: as §3

[35] = system: PANC-1; assay: cells; parameters: Viability of PDAC cell lines, ATPlite luminescence, 11-dose single-agent curve fit; conditions: Homo sapiens, PANC-1, 72 h, read-out: EC50 [nM]
How it was run: as §3

[36] = system: PSN-1; assay: cells; parameters: Viability of PDAC cell lines, ATPlite luminescence, 11-dose single-agent curve fit; conditions: Homo sapiens, PSN1, 72 h, read-out: EC50 [nM]
How it was run: as §3

[37] = system: PaTu-8988-T; assay: cells; parameters: Viability of PDAC cell lines, ATPlite luminescence, 11-dose single-agent curve fit; conditions: Homo sapiens, PaTu 8988t, 72 h, read-out: EC50 [nM]
How it was run: as §3

[38] = system: Suit2-07; assay: cells; parameters: Viability of PDAC cell lines, ATPlite luminescence, 11-dose single-agent curve fit; conditions: 72 h, read-out: EC50 [nM]
How it was run: as §3

[39] = system: 30 PDAC cell lines; conditions: ref Jaaks et al, 2022; cited from earlier work

Compound: C=CCn1c(=O)c2cnc(Nc3ccc(N4CCN(C)CC4)cc3)nc2n1-c1cccc(C(C)(C)O)n1 [Adavosertib (MK-1775)]
EC50 [1]: […] | Kd ([2]; read-out: KDapp): 12.6 nM | EC50 [2]: 12.6 nM | pKDapp [2]: 7.90 | EC50 [3]: 77.5 nM | pKDapp [3]: 7.28 | Kd ([3]; read-out: KDapp): 52 nM | EC50 [4]: 549 nM | pKDapp [4]: 6.47 | Kd ([4]; read-out: KDapp): 337 nM | Kd ([5]; read-out: KDapp): 387 nM | EC50 [5]: 387 nM | pKDapp [5]: 6.41 | EC50 [6]: 428 nM | pKDapp [6]: 6.38 | Kd ([6]; read-out: KDapp): 412 nM | Kd ([7]; read-out: KDapp): 418 nM | EC50 [7]: 745 nM | pKDapp [7]: 6.38 | Kd ([8]; read-out: KDapp): 500 nM | EC50 [8]: 500 nM | pKDapp [8]: 6.30 | EC50 [9]: 627 nM | pKDapp [9]: 6.20 | Kd ([9]; read-out: KDapp): 627 nM | EC50 [10]: 1470 nM | pKDapp [10]: 6.15 | Kd ([10]; read-out: KDapp): 712 nM | EC50 [11]: 980 nM | pKDapp [11]: 6.08 | Kd ([11]; read-out: KDapp): 837 nM | EC50 [12]: 1750 nM | pKDapp [12]: 5.91 | Kd ([12]; read-out: KDapp): 1230 nM | EC50 [13]: […] | EC50 [14]: 2710 nM | pKDapp [14]: 5.77 | Kd ([14]; read-out: KDapp): 1690 nM | EC50 [15]: 2180 nM | pKDapp [15]: 5.76 | Kd ([15]; read-out: KDapp): 1730 nM | Kd ([16]; read-out: KDapp): 1820 nM | EC50 [16]: 2870 nM | pKDapp [16]: 5.74 | EC50 [17]: 3050 nM | pKDapp [17]: 5.72 | Kd ([17]; read-out: KDapp): 1900 nM | Kd ([18]; read-out: KDapp): 1910 nM | EC50 [18]: 3990 nM | pKDapp [18]: 5.72 | EC50 [19]: […] | EC50 [20]: 6340 nM

EC50 [26]: 50.8 nM | EC50 [27]: 0.08 nM | EC50 [29]: 276 nM | EC50 [34]: 1.11 nM | EC50 [35]: 4.67 nM
Compound: CO[C@H]1C[C@@H]2CC[C@@H](C)[C@@](O)(O2)C(=O)C(=O)N2CCCC[C@H]2C(=O)O[C@H]([C@H](C)C[C@@H]2CC[C@@H](O)[C@H](OC)C2)CC(=O)[C@H](C)/C=C(\C)[C@@H](O)[C@@H](OC)C(=O)[C@H](C)C[C@H](C)/C=C/C=C/C=C/1C [Rapamycin]
median AUC across all cell lines [21]: > 80% | synergy with GEM [22]: synergized | synergy with GEM [23]: synergized | synergy with GEM [24]: synergized | sensitization of HPDE cells to GEM [25]: strongly sensitized | EC50 [28]: 0.11 nM | EC50 [30]: 0.09 nM | EC50 [31]: 1.59 nM | EC50 [32]: 0.08 nM | EC50 [33]: 1.13 nM | EC50 [36]: 0.05 nM | EC50 [37]: 0.05 nM | EC50 [38]: 7.19 nM

Compound: NC(=O)Nc1cc(-c2cccc(F)c2)sc1C(=O)N[C@H]1CCCNC1 [AZD7762]
synergy with GEM [39]: nearly half of the cell lines

EC50 [26]: 0.22 nM | EC50 [27]: 0.13 nM | EC50 [29]: 127 nM | EC50 [34]: 3.25 nM | EC50 [35]: 4.17 nM
Compound: CO[C@H]1C[C@@H]2CC[C@@H](C)[C@@](O)(O2)C(=O)C(=O)N2CCCC[C@H]2C(=O)O[C@H]([C@H](C)C[C@@H]2CC[C@@H](OP(C)(C)=O)[C@H](OC)C2)CC(=O)[C@H](C)/C=C(\C)[C@@H](O)[C@@H](OC)C(=O)[C@H](C)C[C@H](C)/C=C/C=C/C=C/1C [Ridaforolimus]
median AUC across all cell lines [21]: > 80% | synergy with GEM [22]: synergized | synergy with GEM [23]: synergized | synergy with GEM [24]: synergized | sensitization of HPDE cells to GEM [25]: strongly sensitized | EC50 [28]: 31.4 nM | EC50 [30]: 87.2 nM | EC50 [31]: 0.13 nM | EC50 [32]: 0.56 nM | EC50 [33]: 15.9 nM | EC50 [36]: 0.26 nM | EC50 [37]: 0.04 nM | EC50 [38]: 118 nM
